From article PMC9489722, “Identification and development of a subtype-selective allosteric AKT inhibitor suitable for clinical development” (Scientific Reports, 2022)
Like-named read-outs stand apart in the source and are kept apart here.

Legend:
Kinetic solubility assay = type: physicochemical; settings: PBS buffer, pH 7.4, aqueous buffer, kinetic from dmso stock, PBS pH 7.4; read-out: Kinetic solubility pH7.4
Method: Compound solubility was tested in Dulbecco A PBS buffer at pH7.4 in Millipore MultiScreen Solubility Filter plates. Analysis was carried out on a Bioteck Synergy 4 plate reader (240–400 nm) and solubility quantified against a 5-point calibration curve.

[1] = In vitro microsomal stability, rat; type: in vitro ADME; settings: pH 7.4; rat liver microsomes; read-out: rat LM CLint
Method: Compounds (final concentration = 1 µM; final DMSO concentration = 0.1%) were incubated in 0.1 M phosphate buffer at pH 7.4 with liver microsomes (human, mouse, rat or dog; 0.5 mg of protein/mL) at 37 °C. Reactions were started by addition of NADPH in 0.1 M phosphate buffer pH 7.4 (final concentration 1 mM). Reactions were quenched by addition of ice-cold methanol and frozen. The supernatants were analysed by LC/MS/MS on a Waters Acquity I-Class coupled to a Waters Xevo TQD mass spectrometer. A Waters BEH C18 2.1 × 50 mm 1.7 µm column was used and mobile phases consisted of water and methanol containing 0.1% formic acid as modifier. Analysis was by multiple reaction monitoring and conditions were optimised for each test compound.

AKT3 = molecular target: T1, AKT3 (Homo sapiens, UniProt Q9Y243); experiment: AKT3 biochemical kinase assay (FP iMAP)
T1 construct: purchased Signal Chem
Method: Biochemical analysis was performed using kinases obtained from Millipore (AKT1, ∆AKT1, ∆AKT2, ∆AKT3) and Signal Chem (AKT2 and AKT3). […] (Molecular Devices) against the three isoforms of AKT and their PH domain null mutants. Compounds were dissolved in DMSO prior to screening at 14 point titration series in the range (50 µM–50 pM). Fluorescence polarisation was measured using a Biotek Synergy 4 Hybrid microplate reader. Percentage inhibition of kinase activity was calculated and IC50 values derived using non-linear regression on GraphPad Prism. Competition of ALM301 with ATP was determined using AKT1 under increasing ATP concentrations up to 1000 µM.

pAKT in MCF-7 cells = experiment: Western blot of pAKT and pGSK3β in MCF-7 cells; type: cell-based; settings: 1 µM, observed from 1 h after treatment
Method: AKT inhibitor treated cell lysates were obtained using RIPA lysis buffer supplemented with protease and phosphatase inhibitor tablets (Roche). Protein samples (30 µg/lane) were run by SDS-PAGE and transferred to Hybond C extra nitrocellulose membranes (Amersham Biosciences) before incubation with the following primary antibodies; pAKT, total AKT, pGSK3β, total GSK3 β, p(Cell Signaling Technologies), Actin (Sigma) or Vinculin (Santa Cruz). Primary antibodies were diluted at 1:1000 (except Actin which was diluted 1:5000). Secondary antibodies were diluted 1:10,000. Blots were visualised using Amersham ECL plus western blot detection system (GE Healthcare) or Odyssey CLx system (LI-COR).

T1 sequence (Q9Y243 whole entry): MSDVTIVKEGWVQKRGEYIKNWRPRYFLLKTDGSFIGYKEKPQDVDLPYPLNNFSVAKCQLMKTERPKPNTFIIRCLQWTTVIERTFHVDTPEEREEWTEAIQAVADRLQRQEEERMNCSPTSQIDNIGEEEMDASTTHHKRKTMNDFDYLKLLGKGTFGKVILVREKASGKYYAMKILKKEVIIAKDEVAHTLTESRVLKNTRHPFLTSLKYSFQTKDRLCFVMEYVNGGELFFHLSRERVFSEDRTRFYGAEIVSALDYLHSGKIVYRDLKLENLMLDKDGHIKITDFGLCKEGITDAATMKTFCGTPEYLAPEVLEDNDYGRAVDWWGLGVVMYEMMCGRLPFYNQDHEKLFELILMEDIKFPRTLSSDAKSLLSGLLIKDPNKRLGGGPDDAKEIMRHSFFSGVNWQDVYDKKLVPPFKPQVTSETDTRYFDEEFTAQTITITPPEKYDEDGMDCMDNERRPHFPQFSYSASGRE

## CCN1C(=O)COc2nc(-c3ccc([C@]4(N)C[C@@H](O)C4)cc3)c(-c3ccccc3)cc21 [ALM301, 6-(4-((1S,3S)-1-amino-3-hydroxycyclobutyl)phenyl)-1-ethyl-7-phenyl-1H-pyrido[2,3-b][1,4]oxazin-2(3H)-one]
Kinetic solubility assay
  solubility kinetic: 192 µM
[1]
  microsomal CLint at 1 µM: 3 µL/min/mg
AKT3; in vitro kinase assays
  potency versus AKT3 reduced relative to AKT1 and AKT2: over 20 fold
AKT3; read-out: AKT IC50, AKT3
  IC50: 2.75 µM
AKT3; read-out: IC50 AKT3
  IC50: > 0.5 µM
pAKT in MCF-7 cells
  inhibition of AKT phosphorylation (western blot): sustained up to 48 h
